Data on one compound can be found in PMC9983021, “Novel GluN2B-Selective NMDA Receptor Negative Allosteric Modulator Possesses Intrinsic Analgesic Properties and Enhances Analgesia of Morphine in a Rodent Tail Flick Pain Model” (ACS Chemical Neuroscience, 2023).

SMILES strings stand for the structures.

Broadly, the ED50 is the dose that gives a 50% effect, or the effect in half of the subjects.

The experiment relates to C57BL/6J mice. Nature of the experiment: Hot water tail immersion test, compound alone (intrinsic antinociception). Type of experiment: in vivo. The following applies: for effect on tail flick latency vs vehicle: n = 8 per group. An excerpt:
After evaluating EU93-108 in vitro, we next evaluated a panel of GluN2B inhibitors for their ability to produce an antinociceptive effect using a classical model of pain perception, determination of tail flick latency for mice when their tails are placed in hot water (Figures 4 and 5). The hot water tail immersion test is a well-validated method of assessing reflexive (i.e., spinal) pain-like response in rodents.[80]−[83] We interpret a drug-induced increase in tail flick latency as analgesia.
The inhibitors were injected i.p. 30 min prior to a hot water tail immersion test. Four treatment groups and one control group were used (n = 8 per group) where the control group received vehicle (10% DMSO, 20% PEG, 2% DMA in water) and groups 1 through 4 were randomly assigned one dose of the appropriate compound.
All animal studies performed at Emory have been approved by the Institutional Animal Care and Use Committee at Emory University. Male and female C57BL/6J mice weighing between 20 and 30 g were housed five per cage and given ad libitum access to food and water. The mice were 8–10 weeks of age at the time of experimentation. Animal holding rooms operated on a 12 h dark/light cycle with the dark cycle from 7:00 pm to 7:00 am. Mice were allowed to acclimate in cages for one week after arrival. The mice were handled regularly and habituated to scruffing and cloth restraint for 3–5 days prior to experimentation.
Mouse weights were recorded on the day of each experiment. Mice were given the appropriate treatment(s) 30 min prior to testing. All injection volumes were 10 mL/kg (e.g., 350 μL for a 35 g mouse). For the tail immersion experiments, each mouse was restrained with a Wypall cloth, leaving the tail exposed. The distal two-thirds of the tail was lowered into a sous vide water bath set to 48 °C, and a stopwatch with a resolution of 0.01 s was used to record the time elapsed between immersion and tail flick. Three recordings were taken for each mouse, and each data point is expressed as the mean of the three recordings. A cut-off time of 25 s was implemented to prevent tissue damage or scarring. For each experiment, the identities of the doses were coded by an independent researcher to ensure blinding. The identities were not decoded until the data were analyzed.
Prism 9.3.1 software (GraphPad, San Diego, CA) was used for all data analysis and visualization. Data for intrinsic antinociception was analyzed using one-way ANOVA and Dunnett’s post hoc test for multiple comparisons where each group was compared to vehicle. Data for acute morphine potentiation experiments were analyzed using one-way ANOVA and Tukey’s post hoc test for multiple comparisons was also used, where each group mean was compared to the mean of every other group. Data for tolerance experiments were analyzed using repeated measures two-way ANOVA and Bonferroni post hoc analysis. Data are presented as mean ± SEM and p < 0.05 constitutes significance.
In general terms: Hot-plate and tail-flick tests time the reaction to a heat stimulus.

Setting [1] is: male mice, i.p. 30 min prior to test.

`CS(=O)(=O)Nc1ccc(OC[C@@H](O)CN2CCN(c3ccc(F)c(F)c3)CC2)cc1` [EU93-108, (S)-N-(4-(3-(4-(3,4-Difluorophenyl)piperazin-1-yl)-2-hydroxypropoxy)phenyl)methanesulfonamide]: the 50% effective dose (ED50) (Mus musculus, ip, male mice, i.p., fitted dose–response curve, estimated, read-out: ED50 (tail flick latency), EU93-108 alone) is 9.7 mg/kg. Also, where the note is “female mice, i.p.”, the “dose at which significant increase in latency was achieved” value was 60 mg/kg. For the same compound, the “effect on tail flick latency vs vehicle” value (female mice, i.p. 30 min prior to test) is “increased latency, but only at 60 mg/kg”. Besides, under setting [1], the mean latency increase is 16 s; the “effect on tail flick latency vs vehicle” value was “significant increases in latency at the two highest doses tested (30 and 60 mg/kg)”. Moreover, the “dose at which significant latency increases were achieved” value (male mice, i.p., lowest significant dose) was 30 mg/kg.
